Measured values taken from patent US6414030B1, “Use of benzenesulfonyl(thio)ureas for the treatment and prophylaxis of dysfunctions of the autonomous nervous system and use of benzenesulfonyl(thio)ureas in combination with beta-receptors blockers” (Aventis Pharma Deutschland, GmbH, priority 1998, dated 2002).
Marks after values point to notes of the source that are not given here.

Columns and labels:
[1] = system: chloroform-induced ventricular fibrillation in the mouse; assay: Chloroform-induced ventricular fibrillation in the mouse (effect on vagal dysfunction), without and with atropine; assay type: in vivo; details: n = 10, untreated control 100%; for Proportion of fibrillation (in %) with atropine (1 mg/kg i.v.): plus atropine 1 mg/kg i.v.
Method: The substances were investigated using the model of chloroform-induced ventricular fibrillation in the mouse (see J. W. Lawson, Antiarrhythmic activity of some isoquinoline derivatives determined by a rapid screening procedure in the mouse; J. Pharmacol. Exp. Ther. 1968, 160, 22-31). […] After 30 minutes, the mouse was anesthetized with chloroform in a beaker. As soon as, in deep anesthesia, respiratory arrest had occurred (toxic anesthesia stage), the thorax of the animal was opened using a pair of scissors and the heartbeat was inspected visually. Here, it is possible to determine on first sight whether the heart is beating, fibrillating or arrested. The respiratory arrest triggered by chloroform leads, via absolute anoxia (lack of oxygen) in combination with a direct stimulating effect of chloroform on the sympathetic nervous system, to a potent stimulation of the sympathicus, which in turn in combination with the energy deficit in the heart caused by lack of oxygen results in fatal arrhythmia, i.e. ventricular fibrillation. This toxic chloroform anesthesia led to ventricular fibrillation in 100% of the untreated mice (control).

[2] = system: chloroform-induced ventricular fibrillation in the mouse; assay: Chloroform-induced ventricular fibrillation in the mouse: combinations of compounds of the formula I with beta-receptor blockers; assay type: in vivo; details: n = 30, untreated control 100%
Method: The substances were investigated using the model of chloroform-induced ventricular fibrillation in the mouse (see J. W. Lawson, Antiarrhythmic activity of some isoquinoline derivatives determined by a rapid screening procedure in the mouse; J. Pharmacol. Exp. Ther. 1968, 160, 22-31). The test substance was dissolved in a mixture of dimethyl sulfoxide (DMSO) and 10% strength sodium bicarbonate solution and administered intraperitoneally (i.p.). After 30 minutes, the mouse was anesthetized with chloroform in a beaker. As soon as, in deep anesthesia, respiratory arrest had occurred (toxic anesthesia stage), the thorax of the animal was opened using a pair of scissors and the heartbeat was inspected visually. Here, it is possible to determine on first sight whether the heart is beating, fibrillating or arrested. The respiratory arrest triggered by chloroform leads, via absolute anoxia (lack of oxygen) in combination with a direct stimulating effect of chloroform on the sympathetic nervous system, to a potent stimulation of the sympathicus, which in turn in combination with the energy deficit in the heart caused by lack of oxygen results in fatal arrhythmia, i.e. ventricular fibrillation. This toxic chloroform anesthesia led to ventricular fibrillation in 100% of the untreated mice (control).
The active compounds were administered i.v. (intravenously) or i.p. (intraperitoneally). In one experiment, 10 mg/kg of 1-[[5-[2-(5-chloro-2-methoxybenzamido)ethyl]-2-methoxyphenyl]sulfonyl]-3-methylthiourea sodium salt (see Example 4; dissolved in DMSO/10% strength sodium bicarbonate solution) were combined with 0.3 mg/kg of propanolol (dissolved in distilled water), a standard beta-blocker. […] The proportion of fibrillation could be lowered further than with the individual substances, in a statistically significant manner. For comparison, a 10 times higher dose of 3 mg/kg of propanolol was used. […] In another experiment, 3 mg/kg of 1-[[5-[2-(5-tert-butyl-2-methoxybenzamido)ethyl]-2-methoxyphenyl]sulfonyl]-3-methylthiourea (Example 1) and 3 mg/kg of atenolol were combined in an analogous manner.

[3] = 3 mg/kg i.p., chloroform anesthesia after 30 minutes

In the case of CNC(=S)NS(=O)(=O)c1cc(CCNC(=O)c2cc(C(C)(C)C)ccc2OC)ccc1OC [Example 1, 1-[[5-[2-(5-tert-Butyl-2-methoxybenzamido)ethyl]-2-methoxyphenyl]sulfonyl]-3-methylthiourea], the “Proportion of fibrillation (in %) without atropine” value [1, 3] is reported as 30%#, the “Proportion of fibrillation (in %) with atropine (1 mg/kg i.v.)” value ([1]; 3 mg/kg i.p.) is reported as 90%* and the “Proportion of fibrillation in %” value ([2]; single substance 3 mg/kg i.p.) is reported as 53%*.
In the case of CNC(=O)NS(=O)(=O)c1cc(CCNC(=O)c2cc(C(C)(C)C)ccc2OC)ccc1OC [Example 2, 1-[[5-[2-(5-tert-Butyl-2-methoxybenzamido)ethyl]-2-methoxyphenyl]sulfonyl]-3-methylurea], the “Proportion of fibrillation (in %) without atropine” value ([1]; 1 mg/kg i.p.) is reported as 60%# and the “Proportion of fibrillation (in %) with atropine (1 mg/kg i.v.)” value ([1]; 1 mg/kg i.p.) is reported as 100%*.
With CNC(=S)NS(=O)(=O)c1cc(CCNC(=O)c2cc(C(C)C)ccc2OC)ccc1OC [Example 3, 1-[[5-[2-(5-lsopropyl-2-methoxybenzamido)ethyl]-2-methoxyphenyl]sulfonyl]-3-methylthiourea] the “Proportion of fibrillation (in %) without atropine” value [1, 3] was 60%#.
With CC(C)NCC(O)COc1ccc(CC(N)=O)cc1 (stereo not drawn) [atenolol] the “Proportion of fibrillation in %” value ([2]; single substance 3 mg/kg i.v.) was 48%*.
With CNC(=S)NS(=O)(=O)c1cc(CCNC(=O)c2cc(Cl)ccc2OC)ccc1OC.[Na] [1-[[5-[2-(5-chloro-2-methoxybenzamido)ethyl]-2-methoxyphenyl]sulfonyl]-3-methylthiourea sodium salt] the “Proportion of fibrillation (in %) without atropine” value ([1]; 10 mg/kg i.p.) was 50%#, the “Proportion of fibrillation (in %) with atropine (1 mg/kg i.v.)” value ([1]; 10 mg/kg i.p.) was 90%* and the “Proportion of fibrillation in %” value ([2]; single substance 10 mg/kg i.v.) was 50%*.
CNC(=O)Oc1ccc2c(c1)[C@]1(C)CCN(C)[C@@H]1N2C [physostigmine, reference compound] was tested, and the “Proportion of fibrillation (in %) without atropine” value ([1]; 1 mg/kg s.c.) was 70%# and the “Proportion of fibrillation (in %) with atropine (1 mg/kg i.v.)” value ([1]; 1 mg/kg s.c.) was 100%*.
For C[N+](C)(C)CCOC(N)=O [carbachol, reference compound], the “Proportion of fibrillation (in %) without atropine” value ([1]; 60 μg/kg i.v.) was 60%# and the “Proportion of fibrillation (in %) with atropine (1 mg/kg i.v.)” value ([1]; 60 μg/kg i.v.) was 100%*.
CNC(=S)NS(=O)(=O)c1cc(CCNC(=O)c2cc(Cl)ccc2OC)ccc1OCCOC [Example 5, 1-[[5-[2-(5-Chloro-2-methoxybenzamido)ethyl]-2-(2-methoxyethoxy)phenyl]sulfonyl]-3-methylthiourea] was tested, and the “Proportion of fibrillation (in %) without atropine” value ([1]; 10 mg/kg i.p.) was 60%# and the “Proportion of fibrillation (in %) with atropine (1 mg/kg i.v.)” value ([1]; 10 mg/kg i.p.) was 100%*.
In the case of CC(C)NCC(O)COc1cccc2ccccc12 (stereo not drawn) [propranolol], the “Proportion of fibrillation in %” value ([2]; single substance 0.3 mg/kg i.v.) is reported as 37%* and the “Proportion of fibrillation in %” value ([2]; single substance 3 mg/kg i.v.) is reported as 17%*.
